Experimental data published in patent publication US7189691B2, “Methods and compositions for treating leukemia” (The Administrators of the Tulane Educational Fund, priority 2004, dated 2007).
“Also recorded” adds a separate entry of the source.

Tests used:
[1] = molecular target: T1, AF4-AF9 interaction (Homo sapiens, UniProt P42568); experiment: GST pull-down assay, GST-AF4(749-775) and biotinylated AF9; type: binding
T1 construct: made in house; host or cells: GST-AF4 from E. coli; AF9 by coupled in vitro transcription/translation (Promega)
T1 sequence (P42568 211-568): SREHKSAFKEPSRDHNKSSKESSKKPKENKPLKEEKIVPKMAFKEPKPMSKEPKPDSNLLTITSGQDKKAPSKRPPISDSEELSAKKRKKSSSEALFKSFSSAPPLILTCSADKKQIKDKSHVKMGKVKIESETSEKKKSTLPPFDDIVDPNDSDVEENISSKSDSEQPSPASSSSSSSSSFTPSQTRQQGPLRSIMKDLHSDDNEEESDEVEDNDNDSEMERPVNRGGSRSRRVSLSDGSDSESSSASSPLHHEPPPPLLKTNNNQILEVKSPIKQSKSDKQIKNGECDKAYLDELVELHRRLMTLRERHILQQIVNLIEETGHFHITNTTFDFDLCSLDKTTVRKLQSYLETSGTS
Experimental: To determine if the synthetic peptide could disrupt the AF4-AF9 interaction in vitro, and to determine if the peptide disrupted other binding events with AF9, the following assay was performed. In additional to AF4, the carboxy-terminus of AF9 binds at least two other proteins, the Polycomb protein MPc3 and mBCoR, the mouse homolog of the human BCL-6 corepressor protein (Srinivasan 2003 and Hemenway 2001, both cited above). Using a yeast three hybrid assay similar to that described in Example 1, it was previously shown that mBCoR and FMR2 (an AF4 homolog) can simultaneously bind AF9. […] The sequences of human AF4 and AF9 and murine MPc3 and BCoR can be found in the NCBI database under Accession Nos. P51825, P42568, Q9QXV1, and AAN85318, respectively, incorporated by reference herein.
Recombinant proteins consisting of glutathione-S-transferase (GST) fused to either (a) amino acids 749–775 of human AF4 SEQ ID NO: 107, (b) amino acids 202–362 of MPc3 SEQ ID NO: 108 or (c) amino acids 925–1759 of mBCoR SEQ ID NO: 109 were isolated from E. coli. These fusion proteins were immobilized on 50 μl glutathione agarose matrix. (i.e., glutathione Sepharose™ beads). Biotinylated AF9 was synthesized by coupled in vitro transcription and translation (Promega) of a Hind III restriction fragment of human AF9 cDNA. This fragment encodes the C-terminal 368 aa of AF9 SEQ ID NO: 114.
Binding of biotinylated AF9 was performed as previously described (Srinivasan, R. S., et al., 2003, cited above; Hemenway, C. S., et al., Oncogene 2001 20: 3798–3805). Briefly, 25 μl of crude AF4 protein extract was immobilized on glutathione coated 96 well plates (Sigma) followed by extensive washing with TBS containing 0.05% Tween (TBST). […]
After extensive washing with TBST, proteins were resolved by SDS-PAGE and transferred to nitrocellulose. […] Alkaline phosphatase activity was measured by determining the optical density of the samples at 405 nm with a plate spectrophotometer. […]

[2] = molecular target: T1, AF4-AF9 interaction; experiment: Enzyme-linked protein binding assay, GST-AF4(749-775) and biotinylated AF9

| Compound | AF4-AF9 binding ([1]; peptide 10 μg/ml, western blot) | AF4-AF9 interaction ([2]; 10 μg/ml, FIG. 2B) | concentration dependence of AF4-AF9 interaction ([2]; FIG. 2B) | lowest concentration showing activity ([2]; FIG. 2B) [ng/mL] | AF4-AF9 binding ([1]; peptide 100 μg/ml) | concentration at which activity plateaus [2] [µg/mL] |
| --- | --- | --- | --- | --- | --- | --- |
| CC[C@H](C)[C@H](NC(=O)[C@H](CCCCN)NC(=O)[C@@H](NC(=O)[C@H](Cc1c[nH]c2ccccc12)NC(=O)[C@H](CC(C)C)NC(=O)[C@H](CCCCN)NC(=O)[C@H](CCCCN)NC(=O)[C@H](Cc1c[nH]c2ccccc12)NC(=O)[C@H](CCCCN)NC(=O)[C@H](CCSC)NC(=O)[C@H](CCCNC(=N)N)NC(=O)[C@H](CCCNC(=N)N)NC(=O)[C@H](CC(N)=O)NC(=O)[C@H](CCC(N)=O)NC(=O)[C@H](Cc1ccccc1)NC(=O)[C@H](Cc1c[nH]c2ccccc12)NC(=O)[C@H](CCCCN)NC(=O)[C@@H](NC(=O)[C@H](CCC(N)=O)NC(=O)[C@@H](N)CCCNC(=N)N)[C@@H](C)CC)C(C)C)C(=O)N[C@@H](CC(=O)O)C(=O)N[C@@H](CC(C)C)C(=O)N[C@@H](CC(=O)O)C(=O)N[C@@H](CC(C)C)C(=O)N[C@@H](CC(C)C)C(=O)N[C@@H](CO)C(=O)N[C@@H](CCCNC(=N)N)C(=O)N[C@H](C(=O)N1CCC[C@H]1C(=O)O)C(C)C [PFWT] | completely blocks AF4-AF9 binding | abolished | dose dependent reduction; also recorded: displaces AF9 from AF4 in a concentration-dependant fashion | 10 | – | – |
| CC[C@H](C)[C@H](NC(=O)[C@H](CCC(N)=O)NC(=O)[C@@H](N)CCCNC(=N)N)C(=O)N[C@@H](CCCCN)C(=O)N[C@@H](Cc1c[nH]c2ccccc12)C(=O)N[C@@H](Cc1ccccc1)C(=O)N[C@@H](CCC(N)=O)C(=O)N[C@@H](CC(N)=O)C(=O)N[C@@H](CCCNC(=N)N)C(=O)N[C@@H](CCCNC(=N)N)C(=O)N[C@@H](CCSC)C(=O)N[C@@H](CCCCN)C(=O)N[C@@H](Cc1c[nH]c2ccccc12)C(=O)N[C@@H](CCCCN)C(=O)N[C@@H](CCCCN)C(=O)N[C@@H](CC(C)C)C(=O)N[C@@H](Cc1c[nH]c2ccccc12)C(=O)N[C@@H](CCC(=O)O)C(=O)N[C@@H](CCCCN)C(=O)N[C@@H](CO)C(=O)N[C@@H](CC(=O)O)C(=O)N[C@@H](CC(C)C)C(=O)N[C@@H](CC(=O)O)C(=O)N[C@@H](CC(C)C)C(=O)N[C@@H](CC(C)C)C(=O)N[C@@H](CO)C(=O)N[C@@H](CCCNC(=N)N)C(=O)N[C@H](C(=O)N1CCC[C@H]1C(=O)O)C(C)C [PFmut] | does not interfere with AF4-AF9 binding | – | – | – | binding was still apparent | 40 |
